Results reported in ChEMBL document CHEMBL4261509, “Insight into the complete substrate-binding pocket of ThiT by chemical and genetic mutations” (Medchemcomm, 2017).

Columns and labels:
[1] = molecular target: T1, Thiamine transporter ThiT (Lactococcus lactis subsp. cremoris (strain MG1363), UniProt A2RI47); assay: Binding affinity to wild-type Lactococcus lactis MG1363 N-terminal His8-tagged ThiT expressed in Lactococcus lactis NZ9000 incubated for 10 secs measured over 15 secs by fluorescence spectrophotometric method
T1 sequence (A2RI47 whole entry): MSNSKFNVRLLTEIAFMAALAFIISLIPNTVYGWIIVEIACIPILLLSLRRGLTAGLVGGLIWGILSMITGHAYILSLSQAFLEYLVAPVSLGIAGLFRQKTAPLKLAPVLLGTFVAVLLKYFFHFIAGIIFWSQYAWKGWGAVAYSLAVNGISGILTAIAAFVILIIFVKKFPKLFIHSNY

[2] = molecular target: T1, Thiamine transporter ThiT; assay: Binding affinity to wild-type Lactococcus lactis MG1363 N-terminal His8-tagged ThiT expressed in Lactococcus lactis NZ9000 by isothermal calorimetric titration method
[3] = molecular target: Thiamine transporter ThiT (Lactococcus lactis subsp. cremoris (strain MG1363), UniProt A2RI47, E84Q); assay: Binding affinity to Lactococcus lactis MG1363 N-terminal His8-tagged ThiT Glu84Gln mutant expressed in Lactococcus lactis NZ9000 by isothermal calorimetric titration method
Chain of Thiamine transporter ThiT (Lactococcus lactis subsp. cremoris (strain MG1363), UniProt A2RI47, E84Q) (A2RI47 whole entry E84Q): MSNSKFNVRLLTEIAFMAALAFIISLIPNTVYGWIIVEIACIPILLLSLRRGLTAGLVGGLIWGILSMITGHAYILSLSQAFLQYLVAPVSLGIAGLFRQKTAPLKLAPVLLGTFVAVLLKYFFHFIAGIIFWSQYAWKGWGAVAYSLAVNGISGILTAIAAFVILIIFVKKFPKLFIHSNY

[4] = molecular target: Thiamine transporter ThiT (Lactococcus lactis subsp. cremoris (strain MG1363), UniProt A2RI47, E84A); assay: Binding affinity to Lactococcus lactis MG1363 N-terminal His8-tagged ThiT Glu84Ala mutant expressed in Lactococcus lactis NZ9000 by isothermal calorimetric titration method
Chain of Thiamine transporter ThiT (Lactococcus lactis subsp. cremoris (strain MG1363), UniProt A2RI47, E84A) (A2RI47 whole entry E84A): as the sequence (A2RI47 whole entry E84Q) above, with Q84A counted along it

[5] = molecular target: Thiamine transporter ThiT (Lactococcus lactis subsp. cremoris (strain MG1363), UniProt A2RI47, H125N); assay: Binding affinity to Lactococcus lactis MG1363 N-terminal His8-tagged ThiT His125Asn mutant expressed in Lactococcus lactis NZ9000 by isothermal calorimetric titration method
Chain of Thiamine transporter ThiT (Lactococcus lactis subsp. cremoris (strain MG1363), UniProt A2RI47, H125N) (A2RI47 whole entry H125N): as the sequence (A2RI47 whole entry E84Q) above, with Q84E, H125N counted along it

[6] = molecular target: Thiamine transporter ThiT (Lactococcus lactis subsp. cremoris (strain MG1363), UniProt A2RI47, E84D); assay: Binding affinity to Lactococcus lactis MG1363 N-terminal His8-tagged ThiT Glu84Asp mutant expressed in Lactococcus lactis NZ9000 by isothermal calorimetric titration method
Chain of Thiamine transporter ThiT (Lactococcus lactis subsp. cremoris (strain MG1363), UniProt A2RI47, E84D) (A2RI47 whole entry E84D): as the sequence (A2RI47 whole entry E84Q) above, with Q84D counted along it

[7] = molecular target: Thiamine transporter ThiT (Lactococcus lactis subsp. cremoris (strain MG1363), UniProt A2RI47, W34A); assay: Binding affinity to Lactococcus lactis MG1363 N-terminal His8-tagged ThiT Trp34Ala mutant expressed in Lactococcus lactis NZ9000 incubated for 5 secs measured over 20 secs by fluorescence spectrophotometric method
Chain of Thiamine transporter ThiT (Lactococcus lactis subsp. cremoris (strain MG1363), UniProt A2RI47, W34A) (A2RI47 whole entry W34A): as the sequence (A2RI47 whole entry E84Q) above, with W34A, Q84E counted along it

[8] = molecular target: Thiamine transporter ThiT (Lactococcus lactis subsp. cremoris (strain MG1363), UniProt A2RI47, H125A); assay: Binding affinity to Lactococcus lactis MG1363 N-terminal His8-tagged ThiT His125Ala mutant expressed in Lactococcus lactis NZ9000 by isothermal calorimetric titration method
Chain of Thiamine transporter ThiT (Lactococcus lactis subsp. cremoris (strain MG1363), UniProt A2RI47, H125A) (A2RI47 whole entry H125A): as the sequence (A2RI47 whole entry E84Q) above, with Q84E, H125A counted along it

Row | Compound | Kd [1] | other results
1 | Cc1ncc(C[n+]2cccc(CCO)c2C)c(N)n1 | 0.18 nM | –
2 | Cc1ncc(Cn2cc(CCO)nn2)c(N)n1 | – | Kd [2]: 28600 nM
3 | Cc1ncc(Cc2cccc(CCO)c2)c(N)n1 | 266 nM | –
4 | Cc1ncc(Cc2csc(CCS[C@@H]3O[C@H](CO)[C@@H](O)[C@H](O)[C@H]3O)c2C)c(N)n1 | 183 nM | –
5 | Cc1ncc(Cc2csc(COCc3ccccc3)c2C)c(N)n1 | 40.3 nM | –
6 | Cc1ncc(Cc2cc(CO)cc(C(F)(F)F)c2)c(N)n1 | – | Kd [2]: 2300 nM
7 | Cc1ncc(Cc2csc(CNCC(c3ccccc3)c3ccccc3)c2C)c(N)n1 | 168 nM | –
8 | Cc1ncc(Cc2csc(COP(=O)(O)OP(=O)(O)O)c2C)c(N)n1 | 209 nM | –
9 | Cc1ncc(Cc2csc(CNCc3ccccn3)c2C)c(N)n1 | 96.7 nM | –
10 | Cc1ncc(Cc2csc(CCOC(=O)c3c[nH]c4ccccc34)c2C)c(N)n1 | 20.1 nM | –
11 | Cc1ncc(Cc2cccc(CO)c2)c(N)n1 | 528 nM | –
12 | Cc1ncc(Cc2csc(CNCC34CC5CC(CC(C5)C3)C4)c2C)c(N)n1 | – | Kd [2]: 49800 nM
13 | Cc1cc(CO)cc(Cc2cnc(C)nc2N)c1 | – | Kd [2]: 1990 nM
14 | Cc1ncc(C[n+]2csc(CCO[P@](=O)(O)OP(=O)(O)O)c2C)c(N)n1 [COCARBOXYLASE] | 1.6 nM | –
15 | Cc1ncc(C[n+]2csc(CCO)c2C)c(N)n1 [THIAMINE ION] | 0.122 nM | Kd [3]: 13600 nM; Kd [4]: 3650 nM; Kd [5]: 13.6 nM; Kd [6]: 2.21 nM; Kd [7]: 0.35 nM; Kd [8]: 14.9 nM
